Data taken from patent US12077503B2, “Substituted cyclic amides and their use as herbicides” (FMC CORPORATION, priority 2015, dated 2024).

Assays:
Type in all cases: in vivo
[1] = system: giant foxtail (Setaria faberi); assay: Test G Post-Emergence Protocol; details: Setaria faberi, post-emergence, 312 h, read-out: Foxtail, Giant damage rating
Procedure, shortened: (§1)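 Scores run 0 (no damage) to 100 (total damage) and were taken 13 days after spraying. Plants had been raised in pots for 8 days under glasshouse control (24/16 °C, 14 h photoperiod, 65% humidity) and then treated at 15.625, 62.5 or 250 g/ha.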

corn (Zea mays) [2] = assay: Test G Post-Emergence Protocol; details: Zea mays, post-emergence, 312 h, read-out: Corn damage rating
Procedure, shortened: as §1

[3] = system: redroot pigweed (Amaranthus retroflexus); assay: Test G Post-Emergence Protocol; details: Amaranthus retroflexus, post-emergence, 312 h, read-out: Pigweed, Redroot damage rating
Procedure, shortened: as §1

[4] = system: velvetleaf (Abutilon theophrasti); assay: Test G Post-Emergence Protocol; details: Abutilon theophrasti, post-emergence, 312 h, read-out: Velvetleaf damage rating
Procedure, shortened: as §1

[5] = system: ivy-leaved morning glory (Ipomoea hederacea); assay: Test G Post-Emergence Protocol; details: Ipomoea, post-emergence, 312 h, read-out: Morningglory, Ivy-leaved damage rating
Procedure, shortened: as §1

[6] = system: barnyardgrass (Echinochloa crus-galli); assay: Test G Post-Emergence Protocol; details: Echinochloa crus-galli, post-emergence, 312 h, read-out: Barnyardgrass damage rating
Procedure, shortened: as §1

[7] = system: giant foxtail (Setaria faberi); assay: Test G Pre-Emergence Protocol; details: Setaria faberi, pre-emergence, 312 h, evaluated after 13 days
Procedure, shortened: (§2)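 Herbicidal effect was rated 13 days post-application on a scale where 100 equals total damage. Spraying took place the day after sowing, using 15.625, 62.5 or 250 g/ha of compound in a 50:50 acetone/water solution with 0.5% Tween 20.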

corn (Zea mays) [8] = assay: Test G Pre-Emergence Protocol; details: Zea mays, pre-emergence, 312 h, evaluated after 13 days
Procedure, shortened: as §2

[9] = system: redroot pigweed (Amaranthus retroflexus); assay: Test G Pre-Emergence Protocol; details: Amaranthus retroflexus, pre-emergence, 312 h, evaluated after 13 days
Procedure, shortened: as §2

[10] = system: velvetleaf (Abutilon theophrasti); assay: Test G Pre-Emergence Protocol; details: Abutilon theophrasti, pre-emergence, 312 h, evaluated after 13 days
Procedure, shortened: as §2

[11] = system: ivy-leaved morning glory (Ipomoea hederacea); assay: Test G Pre-Emergence Protocol; details: Ipomoea, pre-emergence, 312 h, evaluated after 13 days
Procedure, shortened: as §2

[12] = system: barnyardgrass (Echinochloa crus-galli); assay: Test G Pre-Emergence Protocol; details: Echinochloa crus-galli, pre-emergence, 312 h, evaluated after 13 days
Procedure, shortened: as §2

[13] = 15.625 g ai/ha, evaluated after 13 days (100=total damage to plant; 0=no damage to plant)
[14] = 62.5 g ai/ha, evaluated after 13 days, 100=total damage to plant, 0=no damage to plant
[15] = 250 g ai/ha, evaluated after 13 days, 100=total damage to plant, 0=no damage to plant

CN1C[C@H](c2ccc(C(F)(F)F)cc2)[C@@H](C(=O)Nc2cccc(F)[n+]2[O-])C1=O (racemic) [Compound 1814]
pest or weed control at 15.625 g/ha [1, 13]: 0% | pest or weed control at 62.5 g/ha [1, 14]: 0% | pest or weed control at 250 g/ha [1, 15]: 10% | plant injury at 15.625 g/ha (corn (Zea mays) [2]; [13]): 0% | plant injury at 62.5 g/ha (corn (Zea mays) [2]; [14]): 0% | plant injury at 250 g/ha (corn (Zea mays) [2]; [15]): 0% | pest or weed control at 15.625 g/ha [3, 13]: 0% | pest or weed control at 62.5 g/ha [3, 14]: 0% | pest or weed control at 250 g/ha [3, 15]: 0% | pest or weed control at 15.625 g/ha [4, 13]: 0% | pest or weed control at 62.5 g/ha [4, 14]: 0% | pest or weed control at 250 g/ha [4, 15]: 0% | pest or weed control at 15.625 g/ha [5, 13]: 0% | pest or weed control at 62.5 g/ha [5, 14]: 0% | pest or weed control at 250 g/ha [5, 15]: 0% | pest or weed control at 15.625 g/ha [6, 13]: 0% | pest or weed control at 62.5 g/ha [6, 14]: 0% | pest or weed control at 250 g/ha [6, 15]: 0% | pest or weed control at 15.625 g/ha ([7]; 15.625 g ai/ha, read-out: Foxtail, Giant damage rating (100=total damage to plant; 0=no damage to plant)): 0% | pest or weed control at 62.5 g/ha ([7]; 62.5 g ai/ha, 100=total damage to plant, 0=no damage to plant, read-out: Foxtail, Giant damage rating): 0% | pest or weed control at 250 g/ha ([7]; 250 g ai/ha, read-out: Foxtail, Giant damage rating (100=total damage to plant; 0=no damage to plant)): 0% | plant injury at 15.625 g/ha (corn (Zea mays) [8]; 15.625 g ai/ha, read-out: Corn damage rating (100=total damage to plant; 0=no damage to plant)): 0% | plant injury at 62.5 g/ha (corn (Zea mays) [8]; 62.5 g ai/ha, 100=total damage to plant, 0=no damage to plant, read-out: Corn damage rating): 0% | plant injury at 250 g/ha (corn (Zea mays) [8]; 250 g ai/ha, read-out: Corn damage rating (100=total damage to plant; 0=no damage to plant)): 0% | pest or weed control at 15.625 g/ha ([9]; 15.625 g ai/ha, read-out: Pigweed, Redroot damage rating (100=total damage to plant; 0=no damage to plant)): 0% | pest or weed control at 62.5 g/ha ([9]; 62.5 g ai/ha, 100=total damage to plant, 0=no damage to plant, read-out: Pigweed, Redroot damage rating): 0% | pest or weed control at 250 g/ha ([9]; 250 g ai/ha, read-out: Pigweed, Redroot damage rating (100=total damage to plant; 0=no damage to plant)): 0% | pest or weed control at 15.625 g/ha ([10]; 15.625 g ai/ha, read-out: Velvetleaf damage rating (100=total damage to plant; 0=no damage to plant)): 0% | pest or weed control at 62.5 g/ha ([10]; 62.5 g ai/ha, 100=total damage to plant, 0=no damage to plant, read-out: Velvetleaf damage rating): 0% | pest or weed control at 250 g/ha ([10]; 250 g ai/ha, read-out: Velvetleaf damage rating (100=total damage to plant; 0=no damage to plant)): 0% | pest or weed control at 15.625 g/ha ([11]; 15.625 g ai/ha, read-out: Morningglory, Ivy-leaved damage rating (100=total damage to plant; 0=no damage to plant)): 0% | pest or weed control at 62.5 g/ha ([11]; 62.5 g ai/ha, 100=total damage to plant, 0=no damage to plant, read-out: Morningglory, Ivy-leaved damage rating): 0% | pest or weed control at 250 g/ha ([11]; 250 g ai/ha, read-out: Morningglory, Ivy-leaved damage rating (100=total damage to plant; 0=no damage to plant)): 0% | pest or weed control at 15.625 g/ha ([12]; 15.625 g ai/ha, read-out: Barnyardgrass damage rating (100=total damage to plant; 0=no damage to plant)): 0% | pest or weed control at 62.5 g/ha ([12]; 62.5 g ai/ha, 100=total damage to plant, 0=no damage to plant, read-out: Barnyardgrass damage rating): 0% | pest or weed control at 250 g/ha ([12]; 250 g ai/ha, read-out: Barnyardgrass damage rating (100=total damage to plant; 0=no damage to plant)): 0%
